The target in this assay is T1, jack bean urease (Canavalia ensiformis, UniProt P07374).
T1 construct: native jack bean urease
T1 sequence (P07374 whole entry): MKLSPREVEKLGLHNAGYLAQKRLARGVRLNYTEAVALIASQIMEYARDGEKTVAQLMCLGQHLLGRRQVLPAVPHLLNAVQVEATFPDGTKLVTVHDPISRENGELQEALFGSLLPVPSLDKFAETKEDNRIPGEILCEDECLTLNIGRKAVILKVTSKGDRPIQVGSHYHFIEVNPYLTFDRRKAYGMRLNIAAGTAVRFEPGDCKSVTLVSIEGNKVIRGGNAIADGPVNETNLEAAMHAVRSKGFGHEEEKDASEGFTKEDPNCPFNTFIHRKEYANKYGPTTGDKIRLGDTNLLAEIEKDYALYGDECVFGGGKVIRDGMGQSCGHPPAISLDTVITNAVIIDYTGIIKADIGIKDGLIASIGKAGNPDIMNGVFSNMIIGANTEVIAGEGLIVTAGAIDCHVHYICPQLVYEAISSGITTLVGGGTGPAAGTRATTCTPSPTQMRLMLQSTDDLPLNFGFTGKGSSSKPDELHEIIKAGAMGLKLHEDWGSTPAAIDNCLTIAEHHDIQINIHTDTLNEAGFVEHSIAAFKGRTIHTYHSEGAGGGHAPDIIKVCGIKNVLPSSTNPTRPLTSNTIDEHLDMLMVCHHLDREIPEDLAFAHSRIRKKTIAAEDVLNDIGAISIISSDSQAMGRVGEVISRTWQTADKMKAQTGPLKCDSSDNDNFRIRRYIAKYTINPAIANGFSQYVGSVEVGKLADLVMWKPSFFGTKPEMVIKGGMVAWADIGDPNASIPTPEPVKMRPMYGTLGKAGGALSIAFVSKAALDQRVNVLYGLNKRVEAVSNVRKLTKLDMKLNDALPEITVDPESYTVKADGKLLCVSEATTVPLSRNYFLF
Briefly: phenol red pH-rise urease assay, […] nm, time from pH […] to […]. The format is biochemical.
As for `CC(=O)NO` [Acetohydroxamic acid, reference compound], the 50% inhibitory concentration (IC50) (in general, the point on the concentration scale where inhibition reaches its midpoint) is 185 ± 6.2 µM.

As for `O=C(NN=Cc1ccc(C(F)(F)F)cc1)c1ccncc1` [L1], the IC50 is > 500 µM.

For the molecule `O=C(NN=Cc1ccccc1C(F)(F)F)c1ccncc1` [L2, N-[[(2-trifluoromethyl)phenyl]methylidene]pyridine-4-carbohydrazide], the IC50 is > 500 µM.

As to `O=C(NN=Cc1ccc(F)cc1)c1ccncc1` [L3, N-[(4-fluorophenyl)methylidene]pyridine-4-carbohydrazide monohydrate], the half-maximal inhibitory concentration (IC50) was > 500 µM.

On to `O=C(NN=Cc1cc(F)ccc1O)c1ccncc1` [L4, N-[(5-fluoro-2-hydroxyphenyl)methylidene]pyridine-4-carbohydrazide], for which the concentration for half-maximal inhibition (IC50) was > 500 µM.

Regarding `O=C(NN=Cc1cccc(F)c1O)c1ccncc1` [L5, N-[(3-fluoro-2-hydroxyphenyl)methylidene]pyridine-4-carbohydrazide], the IC50 was > 500 µM.

Consider `O=C(NN=Cc1ccccc1)c1ccncc1` [L6, N-(benzylidene)pyridine-4-carbohydrazide], for which the IC50 is > 500 µM.

(Values after PMC6274214, “Antimicrobial Activity and Urease Inhibition of Schiff Bases Derived from Isoniazid and Fluorinated Benzaldehydes and of Their Copper(II) Complexes” (Molecules, 2016).)
